Laboratory results: patent publication US12529022B2, “Human organ-on-chip models for predictive screening” (The Trustees of Columbia University in the City of New York, priority 2018, dated 2026)

Key:
human cardiac OOC [1] = test: Cardiac OOC calcium transients, isoproterenol response after linsitinib exposure; format: cell-based; conditions: tissues exposed to linsitinib, then 1 μM isoproterenol
Experimental: Isoproterenol response: Samples were loaded with Fluo-4, AM, cell permeant (Invitrogen) in RPMI Medium 1630 supplemented with B27 for 30 min at 37° C. […] Videos were analysed in MATLAB using a custom script that calculated the temporal changes in calcium fluorescence intensity. Each frame was normalized to a baseline background region chosen by the user to give baseline-corrected changes in minimum and maximum fluorescence values for each frame. The temporal changes in fluorescence intensity were presented in calcium transient traces from which the measurements were obtained. The calcium transient timing was determined as the peak-to-peak values of two successive beats as defined by the peak maxima.
Calcium transient traces were also analyzed 10 minutes after exposure to 1 μM isoproterenol hydrochloride, diluted in RPMI Medium 1630 supplemented with B27™.

human cardiac OOC [2] = test: Cardiac OOC hydrogen peroxide (ROS-Glo H2O2) assay; format: cell-based; conditions: after linsitinib treatment
Experimental: Tissues were randomly assigned to experimental groups. Medium was changed every day. Cardiac tissues were exposed to linsitinib for 3 days.
Hydrogen peroxide assay: After drug treatment, hydrogen peroxide (H2O2) levels in cardiac tissues were measured using ROS-Glo™ H2O2 Assay (Promega).

[3] = patients with other types of cancers; cited from earlier work
TE-ES and TE-OS models = test: Linsitinib titration on TE-ES and TE-OS bone tumor models, luminescence as cancer cell viability; format: cell-based, human; conditions: 21-day treatment cycle
Experimental: The cells were allowed to attach for 2 hours, and then supplemented with additional mesenchymal stem cell medium overnight. The following day, osteogenic differentiation of the seeded cells was initiated by addition of low glucose DMEM supplemented with 1 μM dexamethasone (Sigma-Aldrich), 10 mM β-glycerophosphate (SigmaAldrich), and 50 μM L-ascorbic acid-2-phosphate (Sigma Aldrich). Each scaffold was incubated in 4 mL of osteogenic media, with media changes three times a week, for 3 weeks, allowing for the MSCs to differentiate into functional, maturing osteoblasts. Two weeks following the initiation of osteogenic differentiation, aggregates of tumor cells were prepared as described previously. Briefly, 0.3×10^6 cells were used to form ES aggregates and 0.5×10^6 cells were used to form OS aggregates. After 1 week of culture, the primary bone tumor aggregates were infused into the differentiated osteoblastseeded bone scaffolds (3 aggregates per scaffold, placed apart of each other). […] Cell viability: Cancer cell viability was measured for GFP-Luciferase labelled cancer cells using ONE-Glo luciferase substrate that was prepared according to manufacturer's protocol (Promega). […] Cardiac cell viability was assessed through the Pierce LDH Cytotoxicity Assay Kit (Thermo Fisher Scientific). […]

[4] = test system: non-metastatic (U2-OS cell line derived) osteosarcoma OOC; test: Non-metastatic osteosarcoma OOC, luciferase luminescence (cancer cell number and viability); format: cell-based, human; conditions: 12 μM
Experimental: (§1) Drug treatment experiments recapitulating the patient treatment regimens and the patient plasma concentration of 12 μM of linsitinib were then carried out on the nonmetastatic and metastatic TE-ES and OS models. FIGS. 44 and 45 are graphs illustrating non-metastatic (U2-OS cell line derived, FIG. 44) and metastatic (KHOS/NP cell line derived, FIG. 45) osteosarcoma OOCs exposed to linsitinib (12 μM) according to the drug treatment regimen outlined. Luminescence as a function of cancer cell number and viability was measured (mean±s.e.m., n=6 for day 3, and n=3 for day 7 and 21, biologically independent per group). Significance was determined by unpaired two-tailed Student's t test of treatment group at specific day with respective control; *P<0.05; **P<0.01; ***P<0.001. Tissue engineered bone tumor models: Using an established protocol, expanded MSCs were seeded into the bone matrix scaffolds (4 mm×4 mm×1 mm) at a concentration of 10^6 cells per scaffold, using 40 μL of medium. The cells were allowed to attach for 2 hours, and then supplemented with additional mesenchymal stem cell medium overnight. The following day, osteogenic differentiation of the seeded cells was initiated by addition of low glucose DMEM supplemented with 1 μM dexamethasone (Sigma-Aldrich), 10 mM β-glycerophosphate (SigmaAldrich), and 50 μM L-ascorbic acid-2-phosphate (Sigma Aldrich). Each scaffold was incubated in 4 mL of osteogenic media, with media changes three times a week, for 3 weeks, allowing for the MSCs to differentiate into functional, maturing osteoblasts. Two weeks following the initiation of osteogenic differentiation, aggregates of tumor cells were prepared as described previously. Briefly, 0.3×10^6 cells were used to form ES aggregates and 0.5×10^6 cells were used to form OS aggregates. […] Cell viability: Cancer cell viability was measured for GFP-Luciferase labelled cancer cells using ONE-Glo luciferase substrate that was prepared according to manufacturer's protocol (Promega). […] Cardiac cell viability was assessed through the Pierce LDH Cytotoxicity Assay Kit (Thermo Fisher Scientific). […]

[5] = test system: metastatic (KHOS/NP cell line derived) osteosarcoma OOC; test: Metastatic osteosarcoma OOC, luciferase luminescence (cancer cell number and viability); format: cell-based, human; conditions: 12 μM
Experimental: as §1

Compound: C[C@]1(O)C[C@@H](c2nc(-c3ccc4ccc(-c5ccccc5)nc4c3)c3c(N)nccn32)C1 [linsitinib, Linsitinib (OSI-906)]
- inotropic response to isoproterenol (human cardiac OOC [1]): inotropic responses were not observed
- proarrhythmic events in calcium transients (human cardiac OOC [1]): proarrhthymic events
- levels of reactive oxygen species (hydrogen peroxide formation) (human cardiac OOC [2]): not observed
- cardiotoxicity in clinical trials [3]: proarrhythmic events, like tachycardia and atrial fibrillation
- luminescence signal as indicator of cancer cell viability (TE-ES and TE-OS models; 12 μM, ES and OS models): significant responses
- luminescence signal as indicator of cancer cell viability, titration (TE-ES and TE-OS models; linsitinib titration): dose response
- course of treated cancer cell population ([4]; after 3 weeks): no longer expanding
- luminescence (cancer cell number and viability) vs control ([4]; after 3 weeks of drug treatment): significant response
- luminescence (cancer cell number and viability) vs control ([4]; after 3 days): no significant response
- luminescence (cancer cell number and viability) vs control ([5]; after 3 days): significant drug response
- drug efficacy ([5]; by day 7): stopped being effective
- course of tumor ([5]; day 7 to D21): rapidly expand before stabilizing by D21
